# Reference: patent US6361595B1, “Process for the preparation of pigment compositions” (Ciba Specialty Chemicals Corporation, priority 1999, dated 2002)
# Experiments:
# Assay type in all cases: cell-based, bacteria
# [1] = system: mixed culture of Gram-positive cocci, Gram-negative cocci, Gram-positive rods and Gram-negative rods; assay: Microbial contamination of dried Pigment Yellow 74 powder (Example 1 procedure) after mixing filter cake with bacterial culture; conditions: PY74, 3 parts dibutyl sebacate, plate 30° C. 48 hours
# Procedure: (§1) Susceptibility to microbial contamination is assessed according to the following procedure:
# (§2) Microbial contamination is assessed using individual bacteria of the morphological types, Gram-positive cocci, Gram-negative cocci, Gram-positive rods and Gram-negative rods which are maintained on Nutrient Agar slopes. When required, each is cultured in Nutrient broth at 30° C. until an organism count of >10^8 colony-forming units (cfu) per milliliter (ml) is reached. The individual cultures are then mixed in equal proportions to provide a mixed culture which is then used immediately.
# (§3) 23.3 parts of acetic acid (80%) are added to a solution of 55 parts of acetoacet-o-anisidide dissolved in a solution of 25.5 parts of sodium hydroxide (47%) in 450 parts of water at a temperature of 0° C. The resultant slurry is reacted with 42.5 parts of p-nitro-o-anisidine previously diazotised with 45.4 parts of sodium nitrite (37%) and 56 parts of hydrochloric acid (36%) in the usual manner with simultaneous addition of sodium hydroxide solution (10%) to maintain pH 5.5-6.0. To the coupled slurry are then added 3 parts of dibutyl sebacate and 1 part of dimethylbenzyl-C12-14alkylammonium chloride (100% active) and the mixture is heated to a temperature of 100° C. and maintained at this temperature for one hour. The product is then filtered and washed with water under vacuum to remove soluble salts. The filter cake(still under vacuum suction) is mixed with a bacterial culture (10 ml of culture diluted to 100 ml with water)and vacuum suction is maintained until no further liquid emanates from the filter cake. The filter cake, without further washing, is then dried and converted to a powder by grinding. The powder is then passed through a 150 micron sieve.
# The procedure described in Example 1 is repeated, but varying the type of biocide and amount of biocide used. The procedure for determining the extent of microbial contamination is as follows:
# (§4) 10 mg of the sieved powder and one drop of sterile water are evenly spread on a Nutrient Agar plate with a glass spreader under aseptic conditions and the plate incubated at 30° C. for 48 hours, The number of bacterial colonies evident on each plate are then counted and expressed as the number of colony-forming units per gram (cfu/g).
# [2] = system: mixed culture of Gram-positive cocci, Gram-negative cocci, Gram-positive rods and Gram-negative rods; assay: Microbial contamination of dried Pigment Yellow 65 powder (Example 2 procedure) after mixing filter cake with bacterial culture
# Procedure: as §1, §2, §4
# as §3, with “(100%)” for “(80%)”, “o-nitro-p-anisidine” for “p-nitro-o-anisidine”, “cake (still” for “cake(still”, “water) and” for “water)and”
# The procedure described in Example 2 is repeated, but varying the type of biocide and amount of biocide used.
# The procedure described in Example 2 is repeated, but varying the type of biocide and amount of biocide used and omitting the DBS.
# [3] = system: mixed culture of Gram-positive cocci, Gram-negative cocci, Gram-positive rods and Gram-negative rods; assay: Microbial contamination of dried Pigment Yellow 13 powder (Example 5 procedure) after mixing filter cake with bacterial culture; conditions: PY13, no DBS
# Procedure: as §1, §2, §4
# A solution of 8.9 parts of acetic acid (100%) and 15 parts hydrochloric acid (36%) in 100 parts water are added to a solution of 63 parts of acetoacet-m-xylidide dissolved in a solution of 25.2 parts of sodium hydroxide (50%) in 676 parts of water at a temperature of 20° C. The resultant slurry is reacted with 36.9 parts of a previously tetrazotised solution of 3,3′-dichlorobenzidine, with simultaneous addition of sodium hydroxide solution (10%) to maintain pH 4.5-5.5. […] The product is then filtered and washed with water under vacuum to remove soluble salts. The filter cake (still under vacuum suction) is mixed with a bacterial culture (10 ml of culture diluted to 100 ml with water) and vacuum suction is maintained until no further liquid emanates from the filter cake. The filter cake, without further washing, is then dried and converted to a powder by grinding. The powder is then passed through a 150 micron sieve.
# [4] = PY65, omitting the DBS, 0.5 parts biocide
# [5] = PY65, omitting the DBS, 1.0 parts biocide
# [6] = PY65, omitting the DBS, 3.0 parts biocide
# [7] = PY65, omitting the DBS, 5.0 parts biocide
# [8] = PY65, with 3 parts dibutyl sebacate, 0.5 parts biocide
# [9] = PY65, with 3 parts dibutyl sebacate, 1.0 parts biocide
# [10] = PY65, with 3 parts dibutyl sebacate, 3.0 parts biocide
# [11] = PY65, with 3 parts dibutyl sebacate, 5.0 parts biocide
Compound,"microbial contamination, colony-forming units per gram ([1]; 0.5 parts biocide)","microbial contamination, colony-forming units per gram ([1]; 1.0 parts biocide)","microbial contamination, colony-forming units per gram ([1]; 3.0 parts biocide)","microbial contamination, colony-forming units per gram ([1]; 5.0 parts biocide)","microbial contamination, colony-forming units per gram [2, 4]","microbial contamination, colony-forming units per gram [2, 5]","microbial contamination, colony-forming units per gram [2, 6]","microbial contamination, colony-forming units per gram [2, 7]","microbial contamination, colony-forming units per gram [2, 8]","microbial contamination, colony-forming units per gram [2, 9]","microbial contamination, colony-forming units per gram [2, 10]","microbial contamination, colony-forming units per gram [2, 11]","microbial contamination, colony-forming units per gram ([3]; 0.5 parts biocide)","microbial contamination, colony-forming units per gram ([3]; 1.0 parts biocide)","microbial contamination, colony-forming units per gram ([3]; 3.0 parts biocide)","microbial contamination, colony-forming units per gram ([3]; 5.0 parts biocide)"
"O=c1[nH]sc2ccccc12 [LV, 1,2-Benzisothiazolin-3-one]",>10^5 cfu/g,>10^5 cfu/g,>10^5 cfu/g,>10^5 cfu/g,>10^4 cfu/g,>10^4 cfu/g,>10^4 cfu/g,>10^4 cfu/g,>10^4 cfu/g,>10^4 cfu/g,>10^4 cfu/g,>10^4 cfu/g,3.0 × 10^3 cfu/g,4.0 × 10^2 cfu/g,1.0 × 10^2 cfu/g,6.0 × 10^2 cfu/g
"Cn1sccc1=O [MIT, Methylisothiazolin-3-one]",8.0 × 10^3 cfu/g,1.0 × 10^4 cfu/g,3.0 × 10^3 cfu/g,1.0 × 10^4 cfu/g,>10^5 cfu/g,>10^5 cfu/g,>10^5 cfu/g,>10^5 cfu/g,>10^4 cfu/g,>10^3 cfu/g,>10^3 cfu/g,0 cfu/g,>10^4 cfu/g,4.0 × 10^3 cfu/g,–,9.0 × 10^2 cfu/g
Benzyldimethyl-C16-18-alkylammonium chloride [DMHTB],>10^4 cfu/g,0 cfu/g,0 cfu/g,0 cfu/g,–,–,–,–,–,–,–,–,–,–,–,–
Tetrakishydroxymethylphosphonium sulphate [THPS],>10^5 cfu/g,>10^5 cfu/g,>10^5 cfu/g,>10^5 cfu/g,>10^5 cfu/g,>10^5 cfu/g,>10^5 cfu/g,>10^5 cfu/g,>10^5 cfu/g,>10^5 cfu/g,>10^5 cfu/g,>10^5 cfu/g,>10^4 cfu/g,>10^4 cfu/g,>10^4 cfu/g,>10^4 cfu/g
Methylbis-(2-hydroxyethyl)-C12-14-alkylammonium chloride [EthO-12],>10^4 cfu/g,0 cfu/g,0 cfu/g,0 cfu/g,–,–,–,–,–,–,–,–,–,–,–,–
Methylbenzyl-di-C16-18-alkylammonium chloride [Example M2HTB],>10^4 cfu/g,0 cfu/g,0 cfu/g,0 cfu/g,–,–,–,–,–,–,–,–,–,–,–,–
Trimethyl-di-C12-14-alkylammonium chloride [Example C-35],>10^4 cfu/g,4.5 × 10^3 cfu/g,0 cfu/g,0 cfu/g,–,–,–,–,–,–,–,–,–,–,–,–
Dimethyl-di-C12-14-alkylammonium chloride [Example 2C-75],8.0 × 10^4 cfu/g,0 cfu/g,0 cfu/g,0 cfu/g,–,–,–,–,–,–,–,–,–,–,–,–
"CCCCn1sc2ccccc2c1=O [DN, n-Butylbenzisothiazolin-3-one]",>10^4 cfu/g,>10^4 cfu/g,>10^3 cfu/g,0 cfu/g,–,–,–,–,>10^4 cfu/g,>10^4 cfu/g,>10^4 cfu/g,8.0 × 10^2 cfu/g,–,–,–,–
